In publication PMC9878345 (Frontiers in Chemistry, 2023):

biological target: SARS-CoV-2 PLpro (Severe acute respiratory syndrome coronavirus 2, UniProt P0DTD1); assay: biochemical; format: biochemical; details: concentration not stated

| SMILES | inhibition activity in SARS-CoV-2 PLpro enzymatic activity |
| --- | --- |
| O=c1c2cc(O)c(O)cc2oc2cc(O)c([C@@H]3O[C@H](CO)[C@@H](O)[C@H](O)[C@H]3O)c(O)c12 [mangiferin, 2-β-D-glucopyranosyl-1,3,6,7-tetrahydroxy-9H-xanthan-9-one] | more than 50% |
| C/C=C1/[C@H](O[C@@H]2O[C@H](CO)[C@@H](O)[C@H](O)[C@H]2O)OC=C(C(=O)OC)[C@H]1CC(=O)OCCc1ccc(O)c(O)c1 [oleuropein] | more than 50% |
| C[C@@H]1O[C@@H](OC[C@H]2O[C@@H](Oc3c(-c4ccc(O)c(O)c4)oc4cc(O)cc(O)c4c3=O)[C@H](O)[C@@H](O)[C@@H]2O)[C@H](O)[C@H](O)[C@H]1O [rutin] | more than 50% |
